From patent US4175130A, “Oxazole- and thiazole-alkanoic acid compounds” (Yoshitomi Pharmaceutical Industries, Ltd., priority 1977, dated 1979)

Experiments:
[1] = Acute Toxicity (oral); details: mouse, in vivo, mice, p.o., mortality within 7 days
Experimental: Male dd-strain mice (20-25 g) were used. Each group was composed of 10 animals. The test compound was orally administered to the animals. The LD50 (mg/kg) was calculated from the mortality within 7 days after administration of the test compound.

[2] = Liver weight / hepatomegaly; assay type: in vivo, male Wistar rats; details: for Increase (%) Liver Weight: Wistar rats, 100 mg/kg/day oral, 5 days, * p<0.05 (only clofibrate starred)
[3] = tested on: Cholesterol and triglyceride in the serum; test: Hypolipidemic action: male rats with normolipidemia (serum cholesterol and triglyceride, oral, 5 days); assay type: in vivo; details: Wistar rats, 100 mg/kg/day oral, control = 100%, * p<0.05 (all values starred)
Experimental: (1) Male rats with normolipidemia:
Male Wistar rats (170-250 g) were used. Each group was composed of 6 animals. The test compound was orally given by a gastric tube for 5 days. Cholesterol and triglyceride in the serum were determined by the standard methods using antoanalyzer (Technicon Inc.). The levels in the control group were considered as 100% and the reduction rate (%) in the test group was calculated.

[4] = tested on: serum cholesterol; test: Hypolipidemic action: male mice with hyperlipidemia (high cholesterol diet); assay type: in vivo, male dd-strain mice; details: dd mice, 100 mg/kg/day oral, 5 days, * p<0.05 (A, B, C, D starred; clofibrate not)
Experimental: (2) Male mice with hyperlipidemia:
Male dd-strain mice (20-25 g) were used. Each group was composed of 10 animals. Mice were fed a high cholesterol diet (1% cholesterol, 0.2% sodium cholate, 5% olive oil and 93.8% commercial diet) for 5 days. The test compound was orally administered to the animals once a day throughout the experimental period. The serum cholesterol was determined by the procedure described in Experiment (1).

[5] = Serum Levels in Rhesus Monkey; assay type: in vivo, rhesus monkeys; details: 10 mg/kg oral; for Cmax: read-out: Peak level (serum)
Experimental: Serum Levels in Rhesus Monkey
The test compound was orally administered to rhesus monkeys at the dose of 10 mg/kg. Blood was collected at 0, 2, 4, 6, 8, 24, 30 and 48 hours after the administration of the test compound. After centrifugation, serum was stored at -20° C. until taken for analysis. Serum drug was extracted with ethyl acetate and fluorometrically determined.
(Wavelengths for fluorometric determination:
excitation: 294 nm, emission: 365 nm with compound A;
excitation: 305 nm, emission: 370 nm with compound D)

Row | SMILES | LD50 at 168 h [1] | liver enlargement ([2]; 100 mg/kg) | Increase (%) Liver Weight [2] | Decrease (%) Cholesterol [3] | Decrease (%) Triglyceride [3] | Decrease (%) of Serum Cholesterol [4] | half-life [5] | Cmax [5] | hepatomegaly ([2]; 500 mg/kg)
1 | CCOC(=O)C(C)(C)Oc1ccc(Cl)cc1 [Clofibrate, reference compound] | 1500 mg/kg | significant liver enlargement | 17% | 32% | 34% | 16% |  |  | 
2 | O.O=C(O)Cc1nc(-c2ccc(Cl)cc2)oc1Oc1ccccc1 [B, 2-p-Chlorophenyl-5-phenoxy-4-oxazoleacetic acid monohydrate] |  |  | -6% | 37% | 33% | 38% |  |  | 
3 | CCOC(=O)Cc1nc(-c2ccc(Cl)cc2)oc1OCC [D, Ethyl 2-p-chlorophenyl-5-ethoxy-4-oxazoleacetate, reference compound] | 3700 mg/kg |  | 5% | 32% | 33% | 37% | 3 h | 15 µg/mL | 
4 | CCOC(=O)Cc1nc(-c2ccc(Cl)cc2)oc1Oc1ccc(Cl)cc1 [Compound A, Ethyl 2-p-chlorophenyl-5-p-chlorophenoxy-4-oxazoleacetate] | > 6000 mg/kg |  | 5% | 40% | 33% | 37% | 30 h | 30 µg/mL | no hepatomegaly
5 | CCOC(=O)Cc1nc(-c2ccc(Cl)cc2)sc1Sc1ccccc1 [C, Ethyl 2-p-chlorophenyl-5-phenylthio-4-thiazoleacetate] |  |  | 15% | 40% | 29% | 34% |  |  | 
